Assay results published in patent US12378211B2, “Carbonic anhydrase inhibitors and antibiotics against multidrug resistant bacteria” (Purdue Research Foundation, priority 2018, dated 2025).
In brackets after ≈: the same amount, converted by molar mass. Where two headings read alike, the source gives them in different places. Values belong to the compound of their own block, whether it stands above or below them.

Columns and labels:
[1] = test system: Staphylococcus epidermidis NRS 101; experiment: MIC against Staphylococci, broth microdilution; type: cell-based; settings: Staphylococcus epidermidis, NRS101; TSB; read-out: MIC
Experimental: (§1) The minimum inhibitory concentrations (MICs) of the compounds and control drugs were determined using the broth microdilution method, according to guidelines outlined by the Clinical and Laboratory Standards Institute (CLSI) 1. Staphylococci strains were grown aerobically overnight on tryptone soya agar plates at 37° C., afterwards a bacterial solution equivalent to 0.5 McFarland standard was prepared and diluted in tryptone soy broth (TSB) to achieve a bacterial concentration of about 5×10^5 CFU/mL and seeded in 96-well well plates. Compounds and control drugs were added in the first row of the 96-well plates and serially diluted along the plates. Plates were then incubated aerobically at 37° C. for 18-20 hours. MICs reported in Table 2 are the minimum concentration of the compounds/control drugs that could inhibit completely the visual growth of the bacteria.

[2] = test system: Mutant-15 of Enterococcus fecalis NR 31975; experiment: microbe, parasite or virus in culture; type: cell-based; settings: Enterococcus
[3] = test system: Mutant-5 of Enterococcus fecalis NR 31975; experiment: microbe, parasite or virus in culture; type: cell-based; settings: Enterococcus
[4] = test system: Mutant-12 of Enterococcus fecalis NR 31975; experiment: microbe, parasite or virus in culture; type: cell-based; settings: Enterococcus
[5] = test system: Mutant-4 of Enterococcus fecalis NR 31975; experiment: microbe, parasite or virus in culture; type: cell-based; settings: Enterococcus
[6] = test system: Mutant-13 of Enterococcus fecalis NR 31975; experiment: microbe, parasite or virus in culture; type: cell-based; settings: Enterococcus
[7] = test system: Mutant-11 of Enterococcus fecalis NR 31975; experiment: microbe, parasite or virus in culture; type: cell-based; settings: Enterococcus
[8] = test system: Mutant-2 of Enterococcus fecalis NR 31975; experiment: microbe, parasite or virus in culture; type: cell-based; settings: Enterococcus
[9] = test system: Mutant-7 of Enterococcus fecalis NR 31975; experiment: microbe, parasite or virus in culture; type: cell-based; settings: Enterococcus
[10] = test system: Mutant-9 of Enterococcus fecalis NR 31975; experiment: microbe, parasite or virus in culture; type: cell-based; settings: Enterococcus
[11] = test system: Bifidobacterium breve—JCP7499 HIM 1120; experiment: MIC against human normal gut microbiota; type: cell-based; settings: Bifidobacterium; BHIS broth, anaerobic, 48 hours; read-out: MIC
Experimental: (§2) Three different bacterial strains were used in this experiment; Bifidobacterium (anaerobic Gram positive bacteria), Bacteroides (anaerobic Gram negative bacteria) and Lactobacillus (microaerophilic Gram positive bacteria). Bifidobacterium and Bacteroides were first grown for 48 hours at 37° C., anaerobically using brain heart infusion supplemented (BHIS) agar (Brain heart infusion agar supplemented with hemin, vitamin K and L-cysteine). Lactobacillus was cultivated on MRS agar and incubated in presence of 5% CO2 for 48 hours at 37° C. Each bacterium was suspended in phosphate buffered saline (PBS) to produce a suspension with optical density that matches 0.5 McFarland standard and diluted in brain heart infusion supplemented broth (for Bifidobacterium and Bacteroides) or in MRS broth (for Lactobacillus) to achieve bacterial concentration of approximately 5×10^5 CFU/ml. Bacteria were then seeded in 96-well plates containing serial dilutions of the compounds and incubated as mentioned previously for 48 hours.

[12] = test system: Bacteroides dorei—CL02T12C06 HM-719; experiment: MIC against human normal gut microbiota; type: cell-based; settings: Bacteroides; BHIS broth, anaerobic, 48 hours; read-out: MIC
Experimental: as §2

[13] = test system: Bifidobacterium longum subsp. Longum—44B HM 845; experiment: MIC against human normal gut microbiota; type: cell-based; settings: Bifidobacterium longum; BHIS broth, anaerobic, 48 hours; read-out: MIC
Experimental: as §2

[14] = test system: Lactobacillus gasseri EX336960VC03 HIM-400; experiment: MIC against human normal gut microbiota; type: cell-based; settings: Lactobacillus gasseri; MRS broth, 5% CO2, 48 hours; read-out: MIC
Experimental: as §2

[15] = test system: Lactobacillus casei ATCC 334; experiment: MIC against human normal gut microbiota; type: cell-based; settings: Lacticaseibacillus casei, ATCC334; MRS broth, 5% CO2, 48 hours; read-out: MIC
Experimental: as §2

[16] = test system: Bacteroides fragilis—CL07T00C01 HIM-709; experiment: MIC against human normal gut microbiota; type: cell-based; settings: Bacteroides; BHIS broth, anaerobic, 48 hours; read-out: MIC
Experimental: as §2

[17] = test system: Mutant-3 of Enterococcus fecalis NR 31975; experiment: microbe, parasite or virus in culture; type: cell-based; settings: Enterococcus
[18] = test system: Mutant-14 of Enterococcus fecalis NR 31975; experiment: microbe, parasite or virus in culture; type: cell-based; settings: Enterococcus
[19] = test system: Enterococcus faecium E417-HM-965; experiment: MIC, broth microdilution in TSB; type: cell-based; settings: Enterococcus faecium, E417HM965, TSB
Experimental: as §1, with “Institute (CLSI). Enterococci” for “Institute (CLSI) 1. Staphylococci”, “Table 1” for “Table 2”

[20] = test system: Enterococcus faecium Patient #2-1-NR-31909; experiment: MIC, broth microdilution in TSB; type: cell-based; settings: Enterococcus faecium, TSB
Experimental: as §1, with “Institute (CLSI). Enterococci” for “Institute (CLSI) 1. Staphylococci”, “Table 1” for “Table 2”

[21] = test system: Mutant-8 of Enterococcus fecalis NR 31975; experiment: microbe, parasite or virus in culture; type: cell-based; settings: Enterococcus
[22] = test system: Mutant-6 of Enterococcus fecalis NR 31975; experiment: microbe, parasite or virus in culture; type: cell-based; settings: Enterococcus
[23] = test system: MRSA NRS 384 (MRSA USA300); experiment: MIC against Staphylococci, broth microdilution; type: cell-based, Staphylococcus aureus; settings: Staphylococcus aureus; TSB; read-out: MIC
Experimental: as §1

[24] = Preliminary in vivo toxicity study; settings: 200 mg/kg twice daily (400 mg/kg daily) for three days
[25] = test system: vancomycin-resistant E. faecium; experiment: Mouse model of GI colonization by VRE; type: in vivo, C57BL/6 mice; settings: 10 mg/kg by oral gavage for 8 days; feces as early as 3rd day
Excerpt: Feasibility in vivo study: AZM reduces VRE load in the intestines and faeces. The promising feature, and the specific and potent antimicrobial activity of CAIs, prompted us to evaluate the in vivo efficacy of AZM in our established mouse model of GI colonization by enterococci with features that mimic the antibiotic-induced enterococcal expansion observed in humans (Mohammad, H. et al., Int J Antimicrob Agents 2018, 51, 897-904; Abdelkhalek, A, et al., PLoS One 2018, 13, e0199710). We tested AZM (two clinical doses 10 and 20 mg/kg) in female 12-week-old C57BL/6 mice (n=5 mice per group) that were sensitized with ampicillin ([…] in drinking water) for 7 days to reduce the microbiota present in the gastrointestinal tract and colonized with 10^8 CFU/mL of vancomycin-resistant E. faecium.
We thought that the rapid absorption of AZM from the gastrointestinal tract would limit their exposure time to VRE present in the gastrointestinal tract.
Mice were treated for 8 days with 10 mg/kg of drugs by oral gavage.

[26] = test system: Enterococcus faecalis—S613 HM-334; experiment: MIC of CAIs in BHIB and TSB; type: cell-based; settings: Enterococcus, read-out: MIC
Experimental: The minimum inhibitory concentrations (MICs) of CAIs were tested against clinical isolates of vancomycin sensitive and vancomycin resistant Enterococci strains as per the guidelines provided by the Clinical and Laboratory Standards Institute (CLSI). The selected strains of Enterococci were streaked on Tryptic Soy Agar (TSA) plates and let grow for 24 hours at 37° C. Afterwards, a bacterial solution equivalent to 0.5 McFarland standard was prepared and diluted in tryptone soy broth (TSB) or brain heart infusion broth (BHIB) to achieve a bacterial concentration of about 5×10^5 CFU/mL and seeded in 96-well well plates. Compounds and control drugs were added in the first row of the 96-well plates and serially diluted along the plates. Plates were then incubated aerobically at 37° C. for 18-20 hours. MICs reported in Table 5 are the minimum concentration of the compounds/control drugs that could inhibit completely the visual growth of the bacteria. The MIC values of CAIs against the tested VRE strains were higher in BHIB than in TSB. This may be due to binding of these drugs to proteins. […] They inhibited the VRE strains at MIC values ranging from 1 to 4 μg/mL.

[27] = test system: Enterococcus faecalis-S613 HM-334; experiment: MIC in presence of 4% human serum albumin; type: cell-based; settings: Enterococcus; TSB supplemented with 4% human serum albumin; read-out: MIC
Experimental: The minimum inhibitory concentrations (MICs) of CAIs were tested against vancomycin resistant Enterococcus faecalis—S613 HM 334 strain as per the guidelines provided by the Clinical and Laboratory Standards Institute (CLSI). The selected strain was streaked on Tryptic Soy Agar (TSA) plate and let grow for 24 hours at 37° C. Afterwards, a bacterial solution equivalent to 0.5 McFarland standard was prepared and diluted in tryptone soy broth (TSB) supplemented with 4% human serum albumin (HAS) to achieve a bacterial concentration of about 5×10^5 CFU/mL and seeded in 96-well well plates. Compounds and control drugs were added in the first row of the 96-well plates and serially diluted along the plates. Plates were then incubated aerobically at 37° C. for 18-20 hours. MICs reported in table (6) are the minimum concentration of the compounds/control drugs that could inhibit completely the visual growth of the bacteria.

[28] = test system: Enterococcus faecium E417-HM-965; experiment: MIC of CAIs in BHIB and TSB; type: cell-based; settings: Enterococcus faecium, read-out: MIC
Experimental: (§3) The minimum inhibitory concentrations (MICs) of CAIs were tested against clinical isolates of vancomycin sensitive and vancomycin resistant Enterococci strains as per the guidelines provided by the Clinical and Laboratory Standards Institute (CLSI). The selected strains of Enterococci were streaked on Tryptic Soy Agar (TSA) plates and let grow for 24 hours at 37° C. Afterwards, a bacterial solution equivalent to 0.5 McFarland standard was prepared and diluted in tryptone soy broth (TSB) or brain heart infusion broth (BHIB) to achieve a bacterial concentration of about 5×10^5 CFU/mL and seeded in 96-well well plates. Compounds and control drugs were added in the first row of the 96-well plates and serially diluted along the plates. Plates were then incubated aerobically at 37° C. for 18-20 hours. MICs reported in Table 5 are the minimum concentration of the compounds/control drugs that could inhibit completely the visual growth of the bacteria.

[29] = test system: Enterococcus faecium Patient #2-1-NR-31909; experiment: MIC of CAIs in BHIB and TSB; type: cell-based; settings: Enterococcus faecium, read-out: MIC
Experimental: as §3

[30] = test system: Enterococcus fecalis Strain SF 24397 NR31970; experiment: MIC of CAIs in BHIB and TSB; type: cell-based; settings: Enterococcus, read-out: MIC
Experimental: as §3

gut microbiota = test system: gut microbiota; parameters: species or system C57BL/6 mice; settings: mouse, in vivo, po, 10 mg/kg
Experimental: CAIs had no major impact on microbiota composition. An extremely promising and innovative feature of CAIs is their narrow spectrum of activity and their ability to decolonize VRE without harming the microbiome. […] To characterize the impact of CAIs administration on the composition of the gut microbiota we performed the following assay6. Female 12-week-old C57BL/6 mice (n=5 mice per group) were exposed to CAIs by oral gavage for 10 days (10 mg/kg daily). Twenty-four hours after last dose, mice were euthanized and cecal and colon contents were harvested. The microbiome was characterized using 16S rDNA gene sequencing. The microbiotas from treated mice were compared to those from a group of control mice. […] However, at the phylum level, we observed decrease in Firmicutes in CAIs treatment groups and likely due to decrease of enterococci as enterococcus is a large genus of the phylum Firmicutes. The Verrucomicrobia and Bacteroidetes remain constant while other phyla increase to fill the remaining percentage from Firmicute loss. […] Indeed, the use of traditional antibiotics can increase the selective pressure and contribute to the selection of other multi-drug-resistant organisms (Kofteridis D. et al., Int J Infect Dis 2009, 13, e313-315).

Compound: CCCC(=O)Nc1nnc(S(N)(=O)=O)s1 [CAI0013, N-(5-Sulfamoyl-1,3,4-thiadiazol-2-yl) butyramide]
- MIC [1]: > 64 µg/mL
- MIC [2]: 16 µg/mL (≈ 63.9 µM)
- MIC [3]: 16 µg/mL (≈ 63.9 µM)
- MIC [4]: 8 µg/mL (≈ 32 µM)
- MIC [5]: 16 µg/mL (≈ 63.9 µM)
- MIC [6]: 16 µg/mL (≈ 63.9 µM)
- MIC [7]: 8 µg/mL (≈ 32 µM)
- MIC [8]: 8 µg/mL (≈ 32 µM)
- MIC [9]: 8 µg/mL (≈ 32 µM)
- MIC [10]: 8 µg/mL (≈ 32 µM)
- MIC [11]: > 64 µg/mL
- MIC [12]: > 64 µg/mL
- MIC [13]: > 64 µg/mL
- MIC [14]: > 64 µg/mL
- MIC [15]: > 64 µg/mL
- MIC [16]: > 64 µg/mL
- MIC [17]: 16 µg/mL (≈ 63.9 µM)
- MIC [18]: 8 µg/mL (≈ 32 µM)
- MIC ([19]; Table 1, read-out: MIC): 0.5 µg/mL (≈ 2 µM)
- MIC ([19]; Table 7, read-out: MIC in TSB): 0.5 µg/mL (≈ 2 µM)
- MIC ([20]; Table 1, read-out: MIC): 0.5 µg/mL (≈ 2 µM)
- MIC ([20]; Table 7, read-out: MIC in TSB): 0.5 µg/mL (≈ 2 µM)
- MIC [21]: 16 µg/mL (≈ 63.9 µM)
- MIC [22]: 8 µg/mL (≈ 32 µM)
- MIC [23]: > 64 µg/mL

Compound: NS(=O)(=O)c1nnc(NCc2ccccc2C(F)(F)F)s1 [analog 8, 5-((2-(trifluoromethyl)benzyl)amino)-1,3,4-thiadiazole-2-sulfonamide]
- signs of distress or toxicity [24]: None of the mice exhibited any signs of distress or toxicity
- reduction of VRE in the feces, cecum and ileum [25]: superior to AZM and linezolid

- MIC ([26]; BHIIB): > 128 µg/mL
- MIC ([26]; TSB, Table 5): 8 µg/mL
- MIC [27]: > 256 µg/mL
- MIC ([28]; E417HM965, BHIB): 128 µg/mL
- MIC ([28]; E417HM965, TSB, Table 5): 16 µg/mL
- MIC ([29]; BHIB): > 128 µg/mL
- MIC ([29]; TSB, Table 5): 8 µg/mL
- MIC ([30]; BHIB): > 128 µg/mL
- MIC ([30]; TSB, Table 5): 8 µg/mL
- taxonomic structure and composition of microbiota (gut microbiota): no major shift or change
Compound: CCN[C@H]1C[C@H](C)S(=O)(=O)c2sc(S(N)(=O)=O)cc21 [Dorzolamide]
